Holding throughout (assay type): functional
A short description of test [1]: Compound was tested for its activity against T. cruzi-infected L6E9 myoblasts at no concentration at 24 h.
Test [2] can be described thus: Compound was tested for its activity against T. cruzi-infected L6E9 myoblasts at no concentration at 48 hr.
Test [3] in a line: Compound was tested for its activity against T. cruzi-infected L6E9 myoblasts at no concentration at 72h.
The nature of test [4]: Compound was tested for its activity against T. cruzi-infected L6E9 myoblasts at a concentration of 30 ug/mL.
The nature of test [5]: Compound was tested for its activity against T. cruzi-infected L6E9 myoblasts at a concentration of 40 ug/mL.
Test [6] is described as follows: Compound was tested for its activity against T. cruzi-infected L6E9 myoblasts expressed as parasites number per 100 myoblasts at a concentration of 30 ug/mL.
Test [7] in a line: Compound was tested for its activity against T. cruzi-infected L6E9 myoblasts expressed as parasites number per 100 myoblasts at no concentration at 24 h.
The nature of test [8]: Compound was tested for its activity against T. cruzi-infected L6E9 myoblasts expressed as parasites number per 100 myoblasts at no concentration at 48 hr.
Test [9] is described as follows: Compound was tested for its activity against T. cruzi-infected L6E9 myoblasts expressed as parasites number per 100 myoblasts at no concentration at 72h.
Test [10] is described as follows: Compound was tested for its activity against T. cruzi-infected L6E9 myoblasts at a concentration of 10 ug/mL.
Test [11] is described as follows: Compound was tested for its activity against T. cruzi-infected L6E9 myoblasts at a concentration of 5 ug/mL.
Test [12] is described as follows: Compound was tested for its activity against T. cruzi-infected L6E9 myoblasts expressed as parasites number per 100 myoblasts at a concentration of 5 ug/mL.

Molecules are shown by their SMILES. “And” between values parts separate entries of the source, which are not always exact repeats. Equal values may be shown once.

Regarding `CCSC(=O)OC/C=C(\C)CC/C=C(\C)CCC1OC1(C)C` (stereo unspecified), the Myoblast with parasites in test [1] was 21.25%; in [2] it was 16.25%; in [3], 20.5%; in test [4], 23.25% and 9.75%; in test [5], 10.25% and 2.75%. Moreover, the “Parasites no. per 100 Myoblasts” value in test [6] is 77.75 and 27; in [7], 46.5; in test [8] it was 118; in test [9], 694.5.

For `c1ccc(Oc2ccc(OCCOC3CCCCO3)cc2)cc1` (stereo unspecified), the Myoblast with parasites in [1] is 21.25%; in test [2], 24.5%; in test [3], 18.25%; in test [10] it was 21.25% and 12.5%; in test [11] it was 22.5% and 22%. The “Parasites no. per 100 Myoblasts” value in test [12] is 90.25 and 113.75; in test [8] it was 107.

(Values after ChEMBL document CHEMBL1151565, “Biological evaluation of two potent inhibitors of Trypanosoma cruzi epimastigotes against the intracellular form of the parasite” (1996).)
